Test results: patent US9102648B1, “Bioavailable diacylhydrazine ligands for modulating the expression of exogenous genes via an ecdysone receptor complex” (Intrexon Corporation, priority 2003, dated 2015)

Tests used:
[1] = Determination of LC Log P (experimental); assay type: physicochemical; conditions: for chromatographic logP: read-out: LC LogP (exp)
Description: Liquid chromatography retention times (RT) are measured for each substance using the conditions described below. A linear equation is derived relating RT to log P is developed from the data for the log P standards. The log P for the test compound is calculated from the log P/retention time equation.

[2] = tested on: mutated ecdysone receptor-based gene switch; assay: In vivo SEAP induction, ligand by IP injection; parameters: species or system C57BL/6 mouse; conditions: for Secreted Alkaline Phosphatase (percentage of GS ™-E ligand induction) Day 2 / Secreted Alkaline Phosphatase (percentage of GS ™-E ligand induction) Day 3 / Secreted Alkaline Phosphatase (percentage of GS ™-E ligand induction) Day 11: mouse serum; for Secreted Alkaline Phosphatase (percentage of GS ™-E ligand induction) Day 2: IP 2.6 μmol ligand 3 days after electroporation, day 2 after ligand; for Secreted Alkaline Phosphatase (percentage of GS ™-E ligand induction) Day 3 / Secreted Alkaline Phosphatase (percentage of GS ™-E ligand induction) Day 11: IP 2.6 μmol ligand; for Secreted Alkaline Phosphatase (percentage of GS ™-E ligand induction) Day 3: day 3 after ligand; for Secreted Alkaline Phosphatase (percentage of GS ™-E ligand induction) Day 11: day 11 after ligand; for Secreted Alkaline Phosphatase Day 2 / Secreted Alkaline Phosphatase Day 3 / Secreted Alkaline Phosphatase Day 7: IP 26 nmol ligand
Description: Applicants' ligands are useful in various applications including gene therapy, expression of proteins of interest in host cells, production of transgenic organisms, and cell-based assays. In vivo induction of a reporter enzyme with various ligands of the present invention was evaluated in a C57BL/6 mouse model system containing a gene switch.
Each element of the gene switch was on a separate plasmid. Receptor expression was under the control of a CMV promoter (SEQ ID NO: 15). Induction was evaluated by the amount of reporter protein expressed in the presence of ligand.
SEAP expression in serum of mice was evaluated after electroporation of the gene switch into mouse quadriceps. Mice were anesthetized with 2 μL/g of a mixture of ketamine (100 mg/mL) and xylazine (20 mg/mL). Animals were then shaved, DNA vectors injected into the muscle in a volume of 2×50 μL polyglutamic acid (12 mg/mL water), electrode conductivity gel applied, and an electrode caliber (1 cm×1 cm; model 384) was placed on hind leg. The muscle was electroporated with 200 V/cm, 8 times, for 20 msec/pulse, at 1 sec time intervals. The transverse electrical field direction was reversed after the animals received half of the pulses. Electroporation was performed with an ECM 830 electroporator from BTX Molecular Delivery Systems.
In some experiments mice received an intraperitoneal injection (IP) of 2.6 μmol of ligand in 50 μL of DMSO 3 days after electroporation of the gene switch. In other experiments the concentration of ligand was decrease to 26 nmol/50 μL of DMSO/mouse. SEAP expression was evaluated 2-11 days after ligand administration. In other experiments ligand was administered in rodent chow. The chow was prepared by dissolving 2 g of ligand in 20 mL of acetone and adding it to 1 kg of LabDiet 5010 autoclavable chow from Purina Mills. This was thoroughly mixed in a Hobart mixer and then mixed for an additional 15 min in a Cross Blend mixer. Animals received chow ad libitum for 1, 2, or 3 days. All values are the average from four animals. Background SEAP in sera from animals treated with vector alone without ligand addition was 0-11 ng/mL serum.
Mouse serum was obtained by centrifugation of blood acquired by retroorbital bleeding with a small glass capillary tube. SEAP quantification was determined using a Clontech Great Escape chemiluminescence kit and by comparison with the Clontech SEAP standard.
Table 9: In vivo evaluation of ligand-mediated induction of a mutated ecdysone receptor-based gene switch. SEAP expression in serum of mice was evaluated after electroporation of the gene expression cassettes into mouse quadriceps. Mice received an IP injection of 2.6 μmol of ligand 3 days after electroporation. SEAP expression was evaluated 2-11 days after ligand administration. Each dose group was composed of four animals. Percentage of GS™-E ligand induction was determined by averaging SEAP expression from four animals divided by the average SEAP expression induced with GS™-E ligand and then multiplying by 100.
Table 10: Induction of gene switch expression with low concentrations of ligand. SEAP expression in serum of mice was evaluated after electroporation of the gene expression cassettes into mouse quadriceps. Mice received an IP injection of 26 nmol of ligand or 130 nmol GS™-E ligand 3 days after electroporation. SEAP expression was evaluated 2-7 days after ligand administration. Values are the average from 4 animals.

[3] = from LC retention time against log P standards

Compound	logP ([1]; diacylhydrazine log P standards (log P known experimentally))	chromatographic logP [1, 3]	Secreted Alkaline Phosphatase (percentage of GS ™-E ligand induction) Day 2 [2]	Secreted Alkaline Phosphatase (percentage of GS ™-E ligand induction) Day 3 [2]	Secreted Alkaline Phosphatase (percentage of GS ™-E ligand induction) Day 11 [2]	LC LogP (exp) [1, 3]	Secreted Alkaline Phosphatase Day 2 [2]	Secreted Alkaline Phosphatase Day 3 [2]	Secreted Alkaline Phosphatase Day 7 [2]
CC(C)(C)N(NC(=O)c1ccc(Cl)cc1)C(=O)c1ccccc1 [RG-100864]	3.2	–	–	–	–	–	–	–	–
COc1cccc(C(=O)NN(C(=O)c2cc(Cl)c(F)c(Cl)c2)C(C)(C)C)c1C [RG-101382, N-(3-methoxy-2-methylbenzoyl)-N′-(3,5-dichloro-4-fluorobenzoyl)-N′-tert-butylhydrazine]	–	4.4	92 percentage of GS ™-E ligand induction	81 percentage of GS ™-E ligand induction	890 percentage of GS ™-E ligand induction	–	–	–	–
CCc1c(C(=O)NN(C(=O)c2cc(C)cc(Cl)c2)C(C)(C)C)ccc2c1OCCO2 [RG-101494, N-(5-ethyl-1,4-benzodioxan-6-carbonyl)-N′-(tert-butyl)-N′-(3-chloro-5-methylbenzoyl)hydrazine]	–	4.3	136 percentage of GS ™-E ligand induction	138 percentage of GS ™-E ligand induction	–	–	–	–	–
COc1cc(C(=O)N(NC(=O)c2ccc3c(c2C)OCCO3)C(C)(C)C#N)cc(OC)c1C [RG-115092, N-(5-methyl-1,4-benzodioxan-6-carbonyl)-N′-(2-cyano-2-propyl)-N′-(3,5-dimethoxy-4-methylbenzoyl)hydrazine]	–	3.5	8 percentage of GS ™-E ligand induction	2 percentage of GS ™-E ligand induction	–	–	–	–	–
CCc1c(OC)cccc1C(=O)NN(C(=O)c1cc(C)cc(C=NNC(=O)C(N)=O)c1)C(C)(C)C [RG-115613, oxamic hydrazone of N-(3-formyl-5-methyl-benzoyl)-N-tert-butyl-N′-(2-ethyl-3-methoxy-benzoyl) hydrazide]	–	–	2 percentage of GS ™-E ligand induction	1 percentage of GS ™-E ligand induction	–	2.8	–	–	–
CCC(N(NC(=O)c1cccc(OC)c1C)C(=O)c1cc(C)cc(C)c1)C(C)(C)C (centres unmarked) [RG-115819, 3,5-dimethyl-benzoic acid N-(1-ethyl-2,2-dimethyl-propyl)-N′-(3-methoxy-2-methyl-benzoyl)-hydrazide]	–	–	172 percentage of GS ™-E ligand induction	215 percentage of GS ™-E ligand induction	3,008 percentage of GS ™-E ligand induction	–	5,984 ng/ml mouse sera	4,096 ng/ml mouse sera	453 ng/ml mouse sera
CCC(N(NC(=O)c1cccc(OC)c1C)C(=O)c1cc(OC)c(C)c(OC)c1)C(C)(C)C (centres unmarked) [RG-115820, 3,5-dimethoxy-4-methyl-benzoic acid N-(1-ethyl-2,2-dimethyl-propyl)-N′-(3-methoxy-2-methyl-benzoyl)-hydrazide]	–	–	82 percentage of GS ™-E ligand induction	63 percentage of GS ™-E ligand induction	399 percentage of GS ™-E ligand induction	–	–	–	–
CCCC(N(NC(=O)c1cccc(OC)c1C)C(=O)c1cc(OC)c(C)c(OC)c1)C(C)(C)C (centres unmarked) [RG-115824]	–	–	102 percentage of GS ™-E ligand induction	101 percentage of GS ™-E ligand induction	415 percentage of GS ™-E ligand induction	–	–	–	–
CCCC(N(NC(=O)c1cccc(OC)c1CC)C(=O)c1cc(OC)c(C)c(OC)c1)C(C)(C)C (centres unmarked) [RG-115829, 3,5-Dimethoxy-4-methyl-benzoic acid N-(1-tert-butyl-butyl)-N′-(2-ethyl-3-methoxy-benzoyl)-hydrazide]	–	–	72 percentage of GS ™-E ligand induction	83 percentage of GS ™-E ligand induction	687 percentage of GS ™-E ligand induction	–	–	–	–
CCCC(N(NC(=O)c1cccc(OC)c1CC)C(=O)c1cc(C)cc(C)c1)C(C)(C)C (centres unmarked) [RG-115830]	–	–	120 percentage of GS ™-E ligand induction	158 percentage of GS ™-E ligand induction	3,558 percentage of GS ™-E ligand induction	–	6,835 ng/ml mouse sera	5,339 ng/ml mouse sera	590 ng/ml mouse sera
CCc1c(OC)cccc1C(=O)NN(C(=O)c1cc(OC)c(C)c(OC)c1)C(CC)C(C)(C)C (centres unmarked) [RG-115831]	–	–	118 percentage of GS ™-E ligand induction	121 percentage of GS ™-E ligand induction	105 percentage of GS ™-E ligand induction	–	–	–	–
CCc1c(OC)cccc1C(=O)NN(C(=O)c1cc(C)cc(C)c1)C(CC)C(C)(C)C (centres unmarked) [RG-115832]	–	–	147 percentage of GS ™-E ligand induction	189 percentage of GS ™-E ligand induction	4,183 percentage of GS ™-E ligand induction	–	2,349 ng/ml mouse sera	1,807 ng/ml mouse sera	149 ng/ml mouse sera
